Assay results taken from US10259810B2, “N-sulfonylated pyrazolo[3,4-b]pyridin-6-carboxamides and method of use” (AbbVie S.à.r.l., priority 2015, dated 2019).

Experiments:
[1] = molecular target: T1, CFTR ΔF508 (Homo sapiens, UniProt P13569, DEL508-508); assay: Acute TECC assay, primary bronchial epithelial cells of CF patients homozygous for CFTR ΔF508, with and without co-corrector; type: cell-based; details: 24 h, Ieq based on maximum current, normalized to DMSO and positive control; for % Activity at 3 μM (Ieq*): 3 μM compound
T1 construct: bronchial epithelial cells isolated from CF patients homozygous for the CFTR ΔF508 mutation; McGill University; Asterand; University of North Carolina hAEC-CF; host or cells: primary human bronchial epithelial cells from CF patients homozygous for ΔF508, differentiated at air-liquid interface
T1 sequence (P13569 with tags, fused parts or gaps DEL508-508): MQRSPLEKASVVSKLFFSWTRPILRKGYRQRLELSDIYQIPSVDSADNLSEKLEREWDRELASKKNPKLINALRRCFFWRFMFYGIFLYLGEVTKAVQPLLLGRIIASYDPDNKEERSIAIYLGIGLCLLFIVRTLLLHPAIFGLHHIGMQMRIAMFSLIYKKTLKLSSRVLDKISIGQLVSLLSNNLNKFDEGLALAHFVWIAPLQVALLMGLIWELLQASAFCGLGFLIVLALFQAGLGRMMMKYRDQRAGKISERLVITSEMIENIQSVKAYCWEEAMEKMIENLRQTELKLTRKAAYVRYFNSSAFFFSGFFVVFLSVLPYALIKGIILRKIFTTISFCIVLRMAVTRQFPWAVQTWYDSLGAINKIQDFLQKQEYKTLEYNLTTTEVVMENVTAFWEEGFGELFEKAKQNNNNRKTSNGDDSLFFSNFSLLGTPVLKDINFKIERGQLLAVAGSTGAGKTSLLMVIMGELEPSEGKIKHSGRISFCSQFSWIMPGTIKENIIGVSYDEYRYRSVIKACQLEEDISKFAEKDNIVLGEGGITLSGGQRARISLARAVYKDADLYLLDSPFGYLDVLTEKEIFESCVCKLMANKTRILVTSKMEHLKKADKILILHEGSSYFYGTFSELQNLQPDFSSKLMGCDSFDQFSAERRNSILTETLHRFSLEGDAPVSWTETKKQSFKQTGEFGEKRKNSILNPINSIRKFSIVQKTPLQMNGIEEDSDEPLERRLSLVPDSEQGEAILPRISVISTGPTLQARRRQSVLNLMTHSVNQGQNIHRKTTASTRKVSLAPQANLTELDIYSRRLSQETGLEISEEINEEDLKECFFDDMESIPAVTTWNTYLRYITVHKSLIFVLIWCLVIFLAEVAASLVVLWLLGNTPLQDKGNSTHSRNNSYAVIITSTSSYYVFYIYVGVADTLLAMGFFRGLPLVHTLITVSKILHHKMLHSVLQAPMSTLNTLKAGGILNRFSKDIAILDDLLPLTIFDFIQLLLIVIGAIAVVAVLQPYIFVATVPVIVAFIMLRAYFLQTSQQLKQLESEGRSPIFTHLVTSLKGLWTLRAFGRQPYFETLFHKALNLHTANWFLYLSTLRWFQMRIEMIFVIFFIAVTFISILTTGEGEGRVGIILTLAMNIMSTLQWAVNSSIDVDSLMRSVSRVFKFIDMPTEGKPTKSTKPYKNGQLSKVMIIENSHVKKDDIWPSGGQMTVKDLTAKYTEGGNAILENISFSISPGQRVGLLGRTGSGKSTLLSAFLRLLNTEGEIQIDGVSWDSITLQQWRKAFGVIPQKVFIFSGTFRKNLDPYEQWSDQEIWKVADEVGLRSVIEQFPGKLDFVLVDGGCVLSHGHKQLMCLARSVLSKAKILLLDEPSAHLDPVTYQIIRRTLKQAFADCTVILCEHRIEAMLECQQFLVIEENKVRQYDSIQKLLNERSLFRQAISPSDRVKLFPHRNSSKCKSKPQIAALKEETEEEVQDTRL
Procedure: Primary Bronchial Epithelial Cells Protocol
The TECC (Tranepithelial Clamp Circuit, EP-design) assay measures the functionality of the cystic fibrosis Transmembrane Conductance regulator (CFTR) by measuring the short circuit current (Isc) generated over the basolateral and apical membrane of lung epithelial cells. In TECC the transepithelial potential PD and transepithelial resistance (Rt) are measured in an open circuit and transformed to Ieq using Ohm's law. 24 Wells can be measured simultaneously allowing a higher throughput compared to Ussing chambers.
For this purpose, bronchial epithelial cells isolated from CF patients homozygous for the CFTR ΔF508 mutation (hAEC-CF, Epithelix, Geneva, Switzerland; McGill University, Montreal, Qc; Asterand, Detroit, Mich.; University of North Carolina, Chapel Hill, N.C.) are plated on type IV collagen-coated Transwell® supports (Costar). Human airway epithelia are generated by provision of an air-liquid interface for 21 days to form well-differentiated polarized cultures that resemble in vivo pseudo-stratified ciliated epithelium (Fulcher, M. L., Gabriel, S., Burns, K. A., Yankaskas, J. R., Randell, S. H., 2005. Well-differentiated human airway epithelial cell cultures. Methods Mol. Med. 107, 183-206). The differentiated cells are treated with test corrector compound(s) (corrector alone or in combination with co-corrector, 4-[(2R,4R)-4-({[1-(2,2-difluoro-1,3-benzodioxol-5-yl)cyclopropyl]carbonyl}amino)-7-methoxy-3,4-dihydro-2H-chromen-2-yl]benzoic acid (“acute”) or test corrector compounds, co-corrector and potentiator, N-(3-carbamoyl-5,5,7,7-tetramethyl-4,7-dihydro-5H-thieno[2,3-c]pyran-2-yl)-1H-pyrazole-5-carboxamide (“chronic”) for 24 hours basolaterally to allow sufficient expression of properly folded CFTR protein on the membrane. All compound plates contained negative controls (DMSO) and positive controls (0.15 μM, 4-[(2R,4R)-4-({[1-(2,2-difluoro-1,3-benzodioxol-5-yl)cyclopropyl]carbonyl}amino)-7-(difluoromethoxy)-3,4-dihydro-2H-chromen-2-yl]benzoic acid).
For electrophysiological recording of the “acute” experiments, the human airway epithelia are mounted in the TECC heating plate and kept at 37° C. The epithelia are bathed in a NaCl-Ringer solution (120 mM NaCl, 25 mM NaHCO3, 1.2 mM CaCl2, 1.2 mM MgCl2, 0.8 mM KH2PO4, 0.8 mM K2HPO4, pH 7.4, 5 mM glucose) on both the basolateral and apical sides. Apical amiloride is used to inhibit the endogenous epithelial sodium channel (ENaC) currents while forskolin is applied on both apical and basolateral side to stimulate CFTR. CFTR activity is measured by addition of forskolin followed by addition of a potentiator, N-(3-carbamoyl-5,5,7,7-tetramethyl-4,7-dihydro-5H-thieno[2,3-c]pyran-2-yl)-1H-pyrazole-5-carboxamide, on both sides. The potentiator, 3-amino-N-[(2S)-2-hydroxypropyl]-5-{[4-(trifluoromethoxy)phenyl]sulfonyl}pyridine-2-carboxamide, was used in place of N-(3-carbamoyl-5,5,7,7-tetramethyl-4,7-dihydro-5H-thieno[2,3-c]pyran-2-yl)-1H-pyrazole-5-carboxamide in some assays. Measurements are done during a 20 minute timeframe with recordings every 2 minutes. […] Inhibitor-172, an inhibitor specific for CFTR, is used to test the specificity of the tested compounds. Raw data were normalized to percentage activity values using the equation: 100×(Sample−Negative control)/(Positive control−Negative Control).

[2] = molecular target: T2, ΔF508-CFTR (Homo sapiens, UniProt P13569, DEL508-508); assay: CFTR cell surface levels using HRP-tagged ΔF508-CFTR expressing CFBE cells, intrinsic corrector capacity; type: cell-based; set-up: % Activation: concentration or dose not given beside the values; details: HRP-tagged ΔF508-CFTR expressing CFBE41o- cells, compound alone (intrinsic corrector capacity), 20 hours at 33° C.; for EC50: read-out: EC50
T2 construct: host or cells: CFBE41o-, doxycycline-inducible
T2 sequence (P13569 with tags, fused parts or gaps DEL508-508): as above
Procedure, shortened: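 Read-out: chemiluminescent HRP activity of ECL4-HRP-tagged ΔF508-CFTR at the cell surface, 15 min substrate in dark. Normalized as 100×(sample−DMSO)/(positive control−DMSO).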

Row | Compound | % Activity at 3 μM (Ieq*) ([1]; without co-corrector) | % Activation [2] | EC50 [2] | % Activity at 10 μM (Ieq*) ([1]; 10 μM compound, without co-corrector) | % Activity at 3 μM with co-corrector (Ieq*) ([1]; 3 μM compound with co-corrector)
1 | CC(C)c1nn(-c2cccc(N3CCC3)c2)c2nc(C(=O)NS(C)(=O)=O)cc(-c3ccc(N4CCOCC4)cc3)c12 [Compound 10, 1-[3-(azetidin-1-yl)phenyl]-N-(methanesulfonyl)-4-[4-(morpholin-4-yl)phenyl]-3-(propan-2-yl)-1H-pyrazolo[3,4-b]pyridine-6-carboxamide] | 591.84% | 418.25% | 0.572 µM | – | –
2 | Cc1nn(-c2ccccc2)c2nc(C(=O)NS(C)(=O)=O)cc(N3CCCCC3)c12 [Compound 13, N-(methanesulfonyl)-3-methyl-1-phenyl-4-(piperidin-1-yl)-1H-pyrazolo[3,4-b]pyridine-6-carboxamide] | 74.32% | 153.85% | 2.36 µM | 174.53% | –
3 | CC(C)c1nn(C2CCCCC2)c2nc(C(=O)NS(C)(=O)=O)cc(-c3cnc(N4CCOCC4)nc3)c12 [Compound 11, 1-cyclohexyl-N-(methanesulfonyl)-4-[2-(morpholin-4-yl)pyrimidin-5-yl]-3-(propan-2-yl)-1H-pyrazolo[3,4-b]pyridine-6-carboxamide] | 351% | 164.7% | 0.557 µM | – | –
4 | CS(=O)(=O)NC(=O)c1cc(-c2ccc(N3CCC(C#N)CC3)nc2)c2c(C3CCC3)nn(C3CCCCC3)c2n1 [Compound 104, 4-[6-(4-cyanopiperidin-1-yl)pyridin-3-yl]-3-cyclobutyl-1-cyclohexyl-N-(methanesulfonyl)-1H-pyrazolo[3,4-b]pyridine-6-carboxamide] | – | 239.6% | 0.497 µM | – | 102.36%
